Assay results: US20260201476A1, “METHODS FOR IDENTIFYING RESISTANCE OR RESPONSE TO VENETOCLAX/HYPOMETHYLATING AGENT/ANTI-CD70 AGENT TREATMENT FOR ACUTE MYELOID LEUKEMIA” (The Regents of the University of Colorado, A Body Corporate, priority 2022, published 2026)
Like-named read-outs stand apart in the source and are kept apart here.

Legend:
newly diagnosed AML = settings: 1118 newly diagnosed AML patients, cited from earlier work
AML [1] = settings: older previously untreated AML patients; venetoclax in combination with backbone chemotherapy treatments; cited from earlier work
AML [2] = experiment: Survival probability of AML subjects by biomarker after venetoclax/azacitidine with or without cusatuzumab (Example 3); format: in vivo, human
Text: The following is a non-limiting example of analysis showing the response of AML subjects to treatment with a combination of venetoclax and azacitidine, or a combination of venetoclax, azacitidine and cusatuzumab, based on various different biomarkers.
FIGS. 12-15 are a series of graphs showing the survival probability of AML subjects after receiving a combination of venetoclax, azacitidine and cusatuzumab. The left panel of each of FIGS. 12-15 are all subjects for which data was available, and the right panel is a subset of the data presented in the left panel minus the subjects who received at least one stem cell transplant.
FIGS. 16-18 are a series of graphs showing the survival probability of AML subjects after receiving either a combination of venetoclax and azacitidine (top panels) or a combination of venetoclax, azacitidine and cusatuzumab (bottom panels).

For `Nc1ccn([C@@H]2O[C@H](CO)[C@@H](O)[C@@H]2O)c(=O)n1` [cytarabine, 4-amino-1-[(2R,3S,4S,5R)-3,4-dihydroxy-5-(hydroxymethyl)oxolan-2-yl] pyrimidin-2-one], the “5-year OS” value (newly diagnosed AML; ELN 2022 adverse risk group) is listed as 15%, the “5-year OS” value (newly diagnosed AML; ELN 2022 favorable risk group) is listed as 55% and the “5-year OS” value (newly diagnosed AML; ELN 2022 intermediate risk group) is listed as 34%.

For `CC1(C)CCC(CN2CCN(c3ccc(C(=O)NS(=O)(=O)c4ccc(NCC5CCOCC5)c([N+](=O)[O-])c4)c(Oc4cnc5[nH]ccc5c4)c3)CC2)=C(c2ccc(Cl)cc2)C1` [venetoclax, 4-(4-{[2-(4-Chlorophenyl)-4,4-dimethyl-1-cyclohexen-1-yl]methyl}-1-piperazinyl)-N-({3-nitro-4-[(tetrahydro-2H-pyran-4-ylmethyl)amino]phenyl}sulfonyl)-2-(1H-pyrrolo[2,3-b]pyridin-5-yloxy)benzamide], the responses (AML [1]) is listed as 60-70%.

In the case of “cusatuzumab: an anti-CD70 monoclonal antibody currently being tested in clinical trials for the treatment of AML”, the “effect of adding cusatuzumab to venetoclax and azacitidine on survival” value (“effect of adding cusatuzumab” below) (AML [2]; CD7+ AML (FIG. 16)) is reported as “overcome the poor prognostic significant of CD7+ AML”, the “effect of adding cusatuzumab” value (AML [2]; FIG. 18 (PTPN11), text prints mutated KRAS) is reported as “overcome the poor prognostic significant of mutated KRAS” and the “effect of adding cusatuzumab” value (AML [2]; mutated KRAS (FIG. 17)) is reported as “overcome the poor prognostic significant of mutated KRAS”.
